Reference: ChEMBL document CHEMBL1201862, “PubChem BioAssay data set” (2004)
The source made the active and inactive calls.

Legend:
Mu-type opioid receptor = Mu-type opioid receptor (Homo sapiens, UniProt P35372); experiment: HTS Image-Based Screen for Agonists of the MOR Receptor. [Related pubchem assays (depositor defined):AID1777, AID1785, AID1786, AID2133]; format: functional;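 further: imaging of beta-arrestin GFP recruitment into spots after receptor activation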
[1] = HepG2 cell cytotoxicity, dose response, cytotoxicity control for non-replicating M. tuberculosis project (AID 489018); format: functional; details: Mycobacterium tuberculosis
cells = format: functional
[2] = molecular target: T1, Type-1 angiotensin II receptor (Homo sapiens, UniProt P30556); experiment: antagonism of angiotensin II type 1 receptor – cell-based, uHTS hits, selectivity assay for APJ receptor antagonist project, dose response (AID 463214); format: functional;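 further: antagonist potency against angiotensin II stimulated AT1 response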
T1 sequence (P30556 whole entry): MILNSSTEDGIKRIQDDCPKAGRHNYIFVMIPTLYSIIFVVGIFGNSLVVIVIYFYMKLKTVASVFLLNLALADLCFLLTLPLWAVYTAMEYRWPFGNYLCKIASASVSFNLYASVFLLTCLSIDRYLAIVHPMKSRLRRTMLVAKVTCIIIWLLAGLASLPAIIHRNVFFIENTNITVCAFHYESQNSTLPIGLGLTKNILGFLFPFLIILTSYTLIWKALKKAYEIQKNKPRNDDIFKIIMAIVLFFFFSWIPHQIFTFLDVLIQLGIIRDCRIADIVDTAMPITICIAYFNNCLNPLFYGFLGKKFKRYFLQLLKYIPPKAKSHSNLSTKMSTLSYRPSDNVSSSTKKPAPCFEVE

[3] = microbe, parasite or virus in culture; format: functional; details: Mycobacterium tuberculosis
Beta-galactosidase [4] = molecular target: T2, Beta-galactosidase (Escherichia coli, UniProt Q8VNN2); format: functional
[5] = molecular target: T3, Kappa-type opioid receptor (Homo sapiens, UniProt P41145); format: functional
[6] = THP-1 cell cytotoxicity, dose response, cytotoxicity control for non-replicating M. tuberculosis project (AID 489025); format: functional
[7] = Vero E6 cell cytotoxicity, dose response, cytotoxicity control for non-replicating M. tuberculosis project, secondary assay (AID 492998); format: functional, VeroE6; details: Vero C1008
INS1 = experiment: INS-1E survival protection against cytokine death – cell-based, luminescence, retest, dose response (AID 449756); format: functional; details: Rattus norvegicus;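 further: cell death triggered by IL-1 beta plus TNF-alpha plus IFN-gamma mixture; protective hits raise ATP signal compared with cytokine alone wells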
[8] = molecular target: T4, Delta-type opioid receptor (Homo sapiens, UniProt P41143); experiment: HTS Image-Based Screen for Antagonists of the DOR Receptor. [Related pubchem assays (depositor defined):AID1777, AID1785, AID1786, AID2133]; format: functional
[9] = molecular target: T3, Kappa-type opioid receptor; format: functional; remark: listed apart in the source
[10] = molecular target: T4, Delta-type opioid receptor; experiment: HTS Image-Based Screen for Agonists of the DOR Receptor. [Related pubchem assays (depositor defined):AID1777, AID1786, AID2133]; format: functional
Beta-galactosidase [11] = molecular target: T2, Beta-galactosidase; experiment: PubChem AID 485352; format: functional
[12] = viability loss of HMLE_sh_eGFP cells – cell-based, luminescence, counter-screen for HMLE_sh_ECad selective toxicity project, dose response (AID 463074); format: functional, Homo sapiens;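 further: HMLE human mammary epithelial cells expressing control shRNA against eGFP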
[13] = Luminescence Cell-Based Dose Retest to Confirm Inhibitors of Cancer Stem Cells. [Related pubchem assays (depositor defined):AID2717, AID2721]; format: functional; details: Homo sapiens
[14] = molecular target: Intestinal-type alkaline phosphatase (Homo sapiens, UniProt P09923); experiment: inhibition of human intestinal alkaline phosphatase – biochemical, dose response (AID 488876); format: functional
Streptokinase A = molecular target: T5, Streptokinase A (Streptococcus pyogenes serotype M1, UniProt P10520); experiment: viability-normalized secreted streptokinase activity reduction – plasminogen activation absorbance, OD405, dose response (AID 1914); format: functional, Streptococcus pyogenes M1 GAS;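 further: secreted streptokinase activity via plasminogen activation per viability signal from cell pellet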
T5 sequence (P10520 whole entry): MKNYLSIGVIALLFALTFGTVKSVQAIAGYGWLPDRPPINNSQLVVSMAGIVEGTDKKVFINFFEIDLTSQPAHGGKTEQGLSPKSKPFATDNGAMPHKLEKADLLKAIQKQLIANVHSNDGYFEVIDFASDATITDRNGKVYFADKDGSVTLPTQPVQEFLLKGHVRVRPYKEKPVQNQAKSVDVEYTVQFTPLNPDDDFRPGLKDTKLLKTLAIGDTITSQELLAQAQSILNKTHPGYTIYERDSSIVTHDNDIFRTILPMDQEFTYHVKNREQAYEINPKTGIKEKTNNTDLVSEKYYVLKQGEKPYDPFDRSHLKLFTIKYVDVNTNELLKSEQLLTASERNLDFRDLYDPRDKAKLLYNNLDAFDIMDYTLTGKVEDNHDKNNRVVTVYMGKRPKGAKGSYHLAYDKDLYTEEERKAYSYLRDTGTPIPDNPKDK

[15] = molecular target: T6, Alkaline phosphatase, tissue-nonspecific isozyme (Homo sapiens, UniProt P05186); experiment: TNAP enzyme inhibition by screening hits, dose response, selectivity assay for mouse IAP inhibitor project, biochemical, human TNAP, uHTS hits (AID 488906); format: functional
T6 sequence (P05186 whole entry): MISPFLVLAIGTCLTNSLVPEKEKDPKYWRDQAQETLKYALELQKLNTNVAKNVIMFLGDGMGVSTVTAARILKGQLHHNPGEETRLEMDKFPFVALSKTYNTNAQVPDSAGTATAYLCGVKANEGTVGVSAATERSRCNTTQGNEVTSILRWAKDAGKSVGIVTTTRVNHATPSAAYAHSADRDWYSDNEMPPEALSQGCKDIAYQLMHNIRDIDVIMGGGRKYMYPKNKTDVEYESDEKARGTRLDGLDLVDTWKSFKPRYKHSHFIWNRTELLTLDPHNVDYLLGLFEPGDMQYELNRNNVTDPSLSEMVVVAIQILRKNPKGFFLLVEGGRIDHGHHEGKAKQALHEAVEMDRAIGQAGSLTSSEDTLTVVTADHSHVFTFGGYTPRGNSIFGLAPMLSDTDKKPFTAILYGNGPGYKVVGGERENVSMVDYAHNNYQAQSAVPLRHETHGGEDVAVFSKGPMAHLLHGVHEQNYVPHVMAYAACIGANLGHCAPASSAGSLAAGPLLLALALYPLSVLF

[16] = molecular target: Intestinal-type alkaline phosphatase (Mus musculus, UniProt P24822); experiment: PubChem AID 488785; format: functional
[17] = molecular target: T7, Ubiquitin-conjugating enzyme E2 N (Homo sapiens, UniProt P61088); format: functional;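 further: Dose-response confirmation in a TR-FRET assay detecting UBC13-driven polyubiquitin chain formation, inhibition measured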
T7 sequence (P61088 whole entry): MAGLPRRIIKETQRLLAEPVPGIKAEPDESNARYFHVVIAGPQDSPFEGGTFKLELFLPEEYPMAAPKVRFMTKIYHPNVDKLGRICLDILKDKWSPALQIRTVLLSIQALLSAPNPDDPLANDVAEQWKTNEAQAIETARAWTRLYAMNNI

[18] = Trypanosoma cruzi growth suppression in host cells – NIH3T3 host cells, beta-gal luminescence, confirmation (AID 2044); format: functional, cell-based;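 further: intracellular parasites grown in NIH/3T3 mouse fibroblasts as host cells; luminescent beta-galactosidase reporter signal from transgenic T. cruzi replicating inside host cells; inhibitors lower the luminescence signal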
[19] = NIH3T3 cell viability loss – ATP luminescence, mouse fibroblasts, counter-screen, dose response (AID 2010); format: functional, cell-based; details: NIH3T3;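 further: cells exposed to compound for about 90 hours before reading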
[20] = molecular target: T8, DNA repair protein RAD52 homolog (Homo sapiens, UniProt P43351); format: functional, biochemical
T8 sequence (P43351 whole entry): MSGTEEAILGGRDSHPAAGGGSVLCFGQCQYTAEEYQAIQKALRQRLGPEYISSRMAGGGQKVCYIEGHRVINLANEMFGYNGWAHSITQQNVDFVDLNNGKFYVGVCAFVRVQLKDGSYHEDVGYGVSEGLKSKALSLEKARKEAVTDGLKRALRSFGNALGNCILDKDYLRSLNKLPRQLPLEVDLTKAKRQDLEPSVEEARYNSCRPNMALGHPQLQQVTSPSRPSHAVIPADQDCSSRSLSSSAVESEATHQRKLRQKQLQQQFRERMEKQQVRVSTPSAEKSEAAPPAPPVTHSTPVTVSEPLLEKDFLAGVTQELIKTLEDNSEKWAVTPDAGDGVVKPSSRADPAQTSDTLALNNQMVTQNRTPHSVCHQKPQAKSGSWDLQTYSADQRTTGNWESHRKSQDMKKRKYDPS

Aspartyl aminopeptidase = molecular target: T9, Aspartyl aminopeptidase (Plasmodium falciparum 3D7, UniProt Q8I2J3)
T9 sequence (Q8I2J3 whole entry): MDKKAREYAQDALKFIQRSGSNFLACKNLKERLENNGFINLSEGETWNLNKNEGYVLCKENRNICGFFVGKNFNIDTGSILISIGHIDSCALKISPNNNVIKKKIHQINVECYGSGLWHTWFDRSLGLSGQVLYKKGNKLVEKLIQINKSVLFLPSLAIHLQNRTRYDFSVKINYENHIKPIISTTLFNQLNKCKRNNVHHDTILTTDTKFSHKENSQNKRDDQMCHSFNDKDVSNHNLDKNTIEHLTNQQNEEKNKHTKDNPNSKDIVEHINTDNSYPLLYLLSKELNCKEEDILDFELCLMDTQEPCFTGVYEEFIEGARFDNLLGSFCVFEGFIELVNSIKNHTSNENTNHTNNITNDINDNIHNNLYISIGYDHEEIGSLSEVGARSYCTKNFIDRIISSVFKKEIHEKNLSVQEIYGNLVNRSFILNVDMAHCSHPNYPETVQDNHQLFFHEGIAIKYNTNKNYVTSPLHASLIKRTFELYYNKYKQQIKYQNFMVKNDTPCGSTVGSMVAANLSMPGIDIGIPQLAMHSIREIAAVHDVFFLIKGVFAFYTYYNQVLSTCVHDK

[21] = viability loss in HeLa cells – cytotoxicity control for MgcRacGAP inhibitor project, dose response (AID 624300); format: functional
Bcl-2-like protein 10 = Bcl-2-like protein 10 (Homo sapiens, UniProt Q9HD36); experiment: Bcl-B/TR3 peptide binding disruption – biochemical, fluorescence polarization, FITC-TR3 peptide, selectivity assay for Bfl-1 inhibitor project, primary screen (AID 748);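 further: fluorescence polarization from a fluorescein-labelled TR3 peptide binding purified Bcl-B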
Procathepsin L = Procathepsin L (Homo sapiens, UniProt P07711)
[22] = IC50 of Artemis nuclease activity blockers – biochemical, fluorescence intensity, dose response (AID 720701); format: functional;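 further: Artemis endonuclease enzyme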
[23] = molecular target: T10, Rac GTPase-activating protein 1 (Homo sapiens, UniProt Q9H0H5); experiment: blockers of MgcRacGAP-driven Rac1 GTP hydrolysis – biochemical, ADP Hunter fluorescence, primary and confirmatory, confirmation (AID 624330); format: functional
T10 sequence (Q9H0H5 whole entry): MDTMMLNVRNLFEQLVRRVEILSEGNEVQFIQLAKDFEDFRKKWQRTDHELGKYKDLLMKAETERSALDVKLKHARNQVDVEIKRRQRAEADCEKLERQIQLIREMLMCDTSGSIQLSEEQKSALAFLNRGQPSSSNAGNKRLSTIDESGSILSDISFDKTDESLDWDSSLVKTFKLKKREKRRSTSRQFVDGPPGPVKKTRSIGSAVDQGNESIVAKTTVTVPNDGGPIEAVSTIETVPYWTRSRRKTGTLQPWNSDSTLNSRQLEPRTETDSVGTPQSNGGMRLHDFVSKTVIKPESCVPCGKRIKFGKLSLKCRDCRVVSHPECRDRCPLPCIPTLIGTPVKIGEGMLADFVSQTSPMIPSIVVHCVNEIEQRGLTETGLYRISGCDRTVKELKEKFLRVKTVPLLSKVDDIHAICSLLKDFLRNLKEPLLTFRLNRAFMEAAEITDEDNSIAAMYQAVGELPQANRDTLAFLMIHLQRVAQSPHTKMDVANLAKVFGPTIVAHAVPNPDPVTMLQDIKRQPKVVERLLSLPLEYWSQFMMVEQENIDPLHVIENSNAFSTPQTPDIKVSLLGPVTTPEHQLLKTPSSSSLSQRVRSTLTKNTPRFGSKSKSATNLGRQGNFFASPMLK

HEK293 [24] = experiment: cells; details: Homo sapiens
HEK293 [25] = experiment: cells; details: Homo sapiens; remark: listed apart in the source

T2 sequence (Q8VNN2 whole entry): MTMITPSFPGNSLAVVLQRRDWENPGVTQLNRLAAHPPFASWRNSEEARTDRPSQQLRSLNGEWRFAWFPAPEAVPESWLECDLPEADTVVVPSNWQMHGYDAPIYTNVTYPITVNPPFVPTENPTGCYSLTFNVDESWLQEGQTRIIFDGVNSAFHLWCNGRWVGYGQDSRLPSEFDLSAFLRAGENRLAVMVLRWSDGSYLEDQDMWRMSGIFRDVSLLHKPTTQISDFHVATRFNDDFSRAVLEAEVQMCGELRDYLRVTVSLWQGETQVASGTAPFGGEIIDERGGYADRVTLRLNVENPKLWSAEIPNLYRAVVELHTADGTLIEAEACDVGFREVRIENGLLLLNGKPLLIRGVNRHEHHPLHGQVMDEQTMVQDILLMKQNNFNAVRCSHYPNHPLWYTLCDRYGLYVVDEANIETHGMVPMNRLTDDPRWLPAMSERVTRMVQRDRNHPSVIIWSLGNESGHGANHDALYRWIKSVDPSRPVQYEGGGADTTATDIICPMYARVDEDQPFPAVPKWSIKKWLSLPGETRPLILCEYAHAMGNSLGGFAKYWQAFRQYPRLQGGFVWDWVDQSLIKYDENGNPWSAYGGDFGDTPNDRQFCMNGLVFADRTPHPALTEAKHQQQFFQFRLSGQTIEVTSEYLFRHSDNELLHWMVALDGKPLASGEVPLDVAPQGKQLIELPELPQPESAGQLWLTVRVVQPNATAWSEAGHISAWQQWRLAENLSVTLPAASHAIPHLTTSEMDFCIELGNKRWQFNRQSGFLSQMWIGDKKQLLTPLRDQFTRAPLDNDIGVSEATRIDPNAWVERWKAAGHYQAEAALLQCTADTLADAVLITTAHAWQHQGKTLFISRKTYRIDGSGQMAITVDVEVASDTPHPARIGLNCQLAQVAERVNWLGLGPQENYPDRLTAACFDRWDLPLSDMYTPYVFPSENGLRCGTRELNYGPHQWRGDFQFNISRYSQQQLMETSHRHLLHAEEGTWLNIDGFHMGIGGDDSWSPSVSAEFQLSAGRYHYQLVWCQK
Intestinal-type alkaline phosphatase (Homo sapiens, UniProt P09923), sequence (P09923 whole entry): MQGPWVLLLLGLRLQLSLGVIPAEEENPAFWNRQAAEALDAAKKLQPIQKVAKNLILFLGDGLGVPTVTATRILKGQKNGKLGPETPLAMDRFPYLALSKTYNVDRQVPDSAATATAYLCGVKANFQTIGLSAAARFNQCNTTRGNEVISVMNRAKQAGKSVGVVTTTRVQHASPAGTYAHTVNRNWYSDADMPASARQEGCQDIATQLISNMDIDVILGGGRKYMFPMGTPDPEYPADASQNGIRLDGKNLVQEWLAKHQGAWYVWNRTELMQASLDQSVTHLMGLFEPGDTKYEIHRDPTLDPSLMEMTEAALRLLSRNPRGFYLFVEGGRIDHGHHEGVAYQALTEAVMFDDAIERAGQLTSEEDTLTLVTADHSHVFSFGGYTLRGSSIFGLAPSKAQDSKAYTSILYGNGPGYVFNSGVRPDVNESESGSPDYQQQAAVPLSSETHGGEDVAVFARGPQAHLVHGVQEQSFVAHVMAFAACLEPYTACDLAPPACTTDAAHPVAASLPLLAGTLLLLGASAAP
T4 sequence (P41143 whole entry): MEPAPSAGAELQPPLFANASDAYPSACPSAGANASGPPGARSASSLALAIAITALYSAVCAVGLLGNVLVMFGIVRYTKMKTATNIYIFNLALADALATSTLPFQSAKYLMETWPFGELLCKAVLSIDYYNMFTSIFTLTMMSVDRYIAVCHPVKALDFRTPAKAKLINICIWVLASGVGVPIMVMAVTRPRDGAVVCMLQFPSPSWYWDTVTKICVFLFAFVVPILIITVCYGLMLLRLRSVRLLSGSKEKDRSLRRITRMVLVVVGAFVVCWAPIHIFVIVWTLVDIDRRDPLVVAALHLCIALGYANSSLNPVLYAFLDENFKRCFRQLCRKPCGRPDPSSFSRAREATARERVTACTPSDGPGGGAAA
Intestinal-type alkaline phosphatase (Mus musculus, UniProt P24822), sequence (P24822 whole entry): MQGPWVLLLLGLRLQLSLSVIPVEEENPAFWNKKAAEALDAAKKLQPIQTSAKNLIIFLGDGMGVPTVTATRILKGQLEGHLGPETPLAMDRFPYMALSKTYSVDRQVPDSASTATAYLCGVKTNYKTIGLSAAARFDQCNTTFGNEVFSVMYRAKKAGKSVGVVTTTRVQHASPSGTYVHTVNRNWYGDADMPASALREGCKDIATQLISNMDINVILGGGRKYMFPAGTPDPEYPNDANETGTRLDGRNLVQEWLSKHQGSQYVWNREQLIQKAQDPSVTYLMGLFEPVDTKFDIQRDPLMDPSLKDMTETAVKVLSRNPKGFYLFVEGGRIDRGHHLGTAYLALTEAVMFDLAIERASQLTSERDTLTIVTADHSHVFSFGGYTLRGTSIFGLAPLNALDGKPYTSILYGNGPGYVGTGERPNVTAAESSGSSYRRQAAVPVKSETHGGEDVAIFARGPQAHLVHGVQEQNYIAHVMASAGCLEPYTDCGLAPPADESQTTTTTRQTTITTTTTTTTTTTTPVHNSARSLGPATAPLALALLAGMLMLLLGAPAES
T3 sequence (P41145 whole entry): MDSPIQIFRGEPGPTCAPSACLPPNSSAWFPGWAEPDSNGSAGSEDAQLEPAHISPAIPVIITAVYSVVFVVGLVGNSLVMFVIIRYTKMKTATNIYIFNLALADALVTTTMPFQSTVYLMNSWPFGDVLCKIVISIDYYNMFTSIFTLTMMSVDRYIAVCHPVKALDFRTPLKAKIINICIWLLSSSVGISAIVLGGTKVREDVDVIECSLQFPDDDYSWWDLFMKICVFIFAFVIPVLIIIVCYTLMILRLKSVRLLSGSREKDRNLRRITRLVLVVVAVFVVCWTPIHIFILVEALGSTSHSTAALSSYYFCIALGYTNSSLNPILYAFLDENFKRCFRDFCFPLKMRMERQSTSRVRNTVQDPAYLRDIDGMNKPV
Bcl-2-like protein 10, sequence (Q9HD36 whole entry): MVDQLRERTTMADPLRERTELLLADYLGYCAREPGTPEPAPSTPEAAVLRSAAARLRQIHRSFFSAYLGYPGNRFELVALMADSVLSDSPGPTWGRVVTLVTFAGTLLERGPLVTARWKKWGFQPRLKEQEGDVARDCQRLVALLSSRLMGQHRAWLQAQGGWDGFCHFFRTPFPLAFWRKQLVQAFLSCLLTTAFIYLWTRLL
Mu-type opioid receptor, sequence (P35372 whole entry): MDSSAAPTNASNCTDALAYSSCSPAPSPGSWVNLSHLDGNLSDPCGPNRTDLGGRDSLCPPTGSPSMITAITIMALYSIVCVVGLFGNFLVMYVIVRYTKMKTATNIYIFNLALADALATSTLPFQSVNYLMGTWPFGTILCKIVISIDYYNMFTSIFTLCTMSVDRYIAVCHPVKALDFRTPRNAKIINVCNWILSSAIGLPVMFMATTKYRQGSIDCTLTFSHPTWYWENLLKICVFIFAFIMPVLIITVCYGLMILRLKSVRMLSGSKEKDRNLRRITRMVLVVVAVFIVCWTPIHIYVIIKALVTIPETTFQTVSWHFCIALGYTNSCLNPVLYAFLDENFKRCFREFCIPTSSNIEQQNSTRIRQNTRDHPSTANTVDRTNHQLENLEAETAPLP
Procathepsin L, sequence (P07711 whole entry): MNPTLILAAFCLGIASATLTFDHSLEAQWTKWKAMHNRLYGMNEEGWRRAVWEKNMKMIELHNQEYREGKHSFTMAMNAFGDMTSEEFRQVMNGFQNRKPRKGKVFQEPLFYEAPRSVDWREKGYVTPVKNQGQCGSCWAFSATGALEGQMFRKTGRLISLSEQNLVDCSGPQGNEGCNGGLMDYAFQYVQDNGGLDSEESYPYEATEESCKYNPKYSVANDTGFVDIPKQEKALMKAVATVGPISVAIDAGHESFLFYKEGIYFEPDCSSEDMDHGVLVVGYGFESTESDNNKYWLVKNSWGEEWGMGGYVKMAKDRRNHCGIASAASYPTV

SMILES: O=C(NNC(=O)C12CC3CC(CC(C3)C1)C2)c1ccccn1
- EC50 (Mu-type opioid receptor): > 32 µM (inactive)
- CC50 [1]: > 20 µM (active)
- IC50 (cells): 9.85 µM (active)
- IC50 [2]: 11.2 µM (active)
- CC50 [3]: 16.7 µM (active)
- EC50 (Beta-galactosidase [4]): > 31.5 µM (inactive)
- IC50 [5]: > 32 µM
- CC50 [6]: 5.31 µM (active)
- CC50 [7]: 8.61 µM (active)
- AC50 (INS1): 3.14 µM (active)
- IC50 [8]: > 32 µM (inactive)
- IC50 [9]: 15 µM (active)
- EC50 [10]: > 32 µM (inactive)
- EC50 (Beta-galactosidase [11]): > 40 µM (inactive)

SMILES: CN(c1ccccc1)S(=O)(=O)c1ccc(-c2ccccc2)cc1
- AC50 [12]: 62.2 µM (active)
- AC50 [13]: 2.66 µM (active)

SMILES: Cc1cc(Cl)ccc1NC(=S)NCCC(c1ccccc1)c1ccccc1
- IC50 [14]: > 100 µM (inactive)
- EC50 (Streptokinase A): 48.5 µM (active)
- IC50 [15]: 80.1 µM (active)
- IC50 [16]: 7.04 µM (active)

SMILES: Cc1cc(N2CCN(C)CC2)nc2ccc(NC(=S)N3CCN(c4ccc(Cl)cc4)CC3)cc12
- IC50 [17]: > 20 µM (inactive)
- EC50 [18]: 0.762 µM (active)
- AC50 [12]: 184 µM (active)
- EC50 [19]: 11.9 µM (active)
- AC50 [20]: 3.07 µM (active)
- AC50 [13]: 0.367 µM (active)

SMILES: O=C(COc1ccccc1C(=O)N/N=C\c1ccc(O)c(O)c1)N/N=C/c1ccc(O)c(O)c1
- IC50 [14]: > 100 µM (inactive)
- IC50 (Aspartyl aminopeptidase): 1.5 µM (active)
- CC50 [21]: 100 µM (active)
- IC50 [15]: > 100 µM (inactive)
- IC50 [16]: 12.8 µM (active)
- IC50 (Bcl-2-like protein 10): 1.07 µM (active)
- IC50 (Procathepsin L): > 59.6 µM (not active)
- IC50 [22]: 1.91 µM (active)
- IC50 [23]: 21.1 µM (active)

SMILES: C1COCCO1.CCOc1ccc(N2C(=O)CC(N(CCc3ccc(OC)c(OC)c3)C(S)=Nc3ccccc3)C2=O)cc1 (configuration not stated)
- EC50 (HEK293 [24]): > 59.7 µM (inactive)
- EC50 (HEK293 [25]): > 59.7 µM (inactive)
